Legend:
[1] = in vitro medium, 37° C., cited from earlier work
[2] = In vivo pharmacokinetic study after oral (intragastric) administration in rats; conditions: rat, oral solution, 1 mg/kg
Description: Naked physostigmine solution (1 mg/kg) or physostigmine-loaded RG 502 microparticles suspension (10% drug loading) were fed intragastrically into the overnight-fasted rats (weight-280g) via a rigid dosing gavage needle into the posterior of the rat pharynx, directly into the stomach. Immediately before administration of the tablets and solutions, a 300 μL sample of blood was taken at what was t=0 hrs (pre-dose), through the exposed catheter. Subsequent samples were drawn from the catheter at intervals over a period of 48 hours after drug administration. After each withdrawal, an equal volume of 0.9% normal saline was injected back into the blood stream to minimize loss of body fluid. Water and food were available ad libitum in the metabolic cages. Each 300 μl volume of blood was collected in heparinised microcentrifuge tubes and centrifuged under 3000 g for 5 minutes at 4° C. to obtain the plasma. All plasma samples were stored at −70° C. in fresh heparinised microcentrifuge tubes. Physostigmine is extracted immediately from it prior to analysis by high performance liquid chromatography (HPLC) described by Zhao et al (2003) Journal of Chromatography B 784- 323-329). The WinNonlin® Version 3.2 (Pharsight Corporation, USA) was used to calculate the pharmacokinetic parameters based on the non-compartment model.

[3] = K. Walter et al. (1995); cited from earlier work

SMILES: CNC(=O)Oc1ccc2c(c1)[C@]1(C)CCN(C)[C@@H]1N2C [physostigmine, Physostigmine]
- physostigmine degraded ([1]; in 6 days): about 40%
- physostigmine degradation rate [1]: 7 % per day
- Tmax ([2]; plasma): 40.8 min
- AUC ([2]; plasma, read-out: AUC (hr*μg/mL), Mean): 0.77 µg·h/mL
- Cmax ([2]; plasma, read-out: Cmax (μg/mL), Mean): 0.57 µg/mL
- half-life ([2]; plasma, read-out: Half life (hr), Mean (converted)): 1.16 h
- Cl (mL/hr/kg), Mean [2]: 998.86 mL/h/kg
- Vd (mL/kg), Mean [2]: 1584.37 mL/kg
- elimination half-life [3]: 12 to 40 min

Source: US20050013869A1, “Sustained release formulation for carbamates and a method therefor” (priority 2003, published 2005)
